Measured values from ChEMBL document CHEMBL3853284, “Bioactive Dihydro-β-agarofuran Sesquiterpenoids from the Australian Rainforest Plant Maytenus bilocularis” (J Nat Prod, 2016).
One block for each molecule: values may come before it.

Experiments:
[1] = Potentiation of vinblastin-induced cytotoxicity against human CEM cells at 5 uM after 72 hrs by Alamar blue assay relative to control; format: functional, CCRF-CEM
CCRF-CEM VCR/R = assay: Inhibition of P-gp in human CCRF-CEM VCR/R cells assessed as potentiation of vinblastin-induced cytotoxicity at 5 uM after 72 hrs by Alamar blue assay relative to control; format: cell-based
[2] = Cytotoxicity against human LNCAP cells assessed as cell viability inhibition at 10 uM after 72 hrs by Alamar blue assay; format: functional
[3] = molecular target: T1, Large neutral amino acids transporter small subunit 3 (Homo sapiens, UniProt O75387); assay: Inhibition of LAT3 in human LNCAP cells assessed as inhibition of [3H]L-leucine uptake after 15 mins by liquid scintillation counting method; format: cell-based
T1 sequence (O75387 whole entry): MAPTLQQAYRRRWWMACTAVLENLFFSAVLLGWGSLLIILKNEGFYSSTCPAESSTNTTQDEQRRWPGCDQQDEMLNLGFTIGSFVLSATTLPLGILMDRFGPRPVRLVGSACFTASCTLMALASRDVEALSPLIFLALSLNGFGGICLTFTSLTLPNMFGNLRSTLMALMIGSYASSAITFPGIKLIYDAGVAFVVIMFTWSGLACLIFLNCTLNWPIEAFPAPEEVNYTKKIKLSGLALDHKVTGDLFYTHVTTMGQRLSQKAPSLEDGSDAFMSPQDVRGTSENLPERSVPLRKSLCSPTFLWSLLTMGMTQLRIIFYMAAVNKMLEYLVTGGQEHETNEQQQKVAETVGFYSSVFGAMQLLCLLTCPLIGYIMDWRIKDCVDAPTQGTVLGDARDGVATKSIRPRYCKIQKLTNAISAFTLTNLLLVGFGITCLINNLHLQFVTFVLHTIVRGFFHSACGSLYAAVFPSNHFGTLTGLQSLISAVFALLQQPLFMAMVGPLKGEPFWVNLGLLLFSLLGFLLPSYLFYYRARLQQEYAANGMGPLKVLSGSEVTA

[4] = molecular target: T2, Large neutral amino acids transporter small subunit 3 (Homo sapiens) (UniProt O75387); assay: Inhibition of LAT3 in human LNCAP cells assessed as inhibition of [3H]L-leucine uptake at 10 mM after 15 mins by liquid scintillation counting method relative to control; format: cell-based
T2 sequence (whole entry): T1 sequence (O75387 whole entry)

[5] = molecular target: T2, Large neutral amino acids transporter small subunit 3 (Homo sapiens); assay: Inhibition of LAT3 in human LNCAP cells assessed as inhibition of [3H]L-leucine uptake at 10 uM after 15 mins by liquid scintillation counting method relative to control; format: cell-based

IC50 [3]: 124 µM
Compound: CC(=O)OC[C@@]12[C@@H](OC(C)=O)CC[C@@H](C)[C@]13OC(C)(C)[C@H]([C@@H](O)[C@H]2OC(=O)c1ccccc1)[C@H]3OC(C)=O
fold change (FC) [1]: 1.7
fold change (FC) (CCRF-CEM VCR/R): 36.3
inhibition at 10 µM [2]: > 30%

IC50 [3]: 15.5 µM
Compound: CC(=O)O[C@@H]1[C@@H]2[C@@H](OC(C)=O)[C@]3(OC2(C)C)[C@H](C)CC[C@H](OC(C)=O)[C@@]3(C)[C@@H]1OC(=O)c1ccccc1
fold change (FC) [1]: 2
fold change (FC) (CCRF-CEM VCR/R): 61
inhibition at 10 µM [2]: 14.6%

Compound: CC(=O)O[C@H]1CC[C@@H](C)[C@]23OC(C)(C)[C@H](C[C@H](OC(=O)c4ccccc4)[C@]12C)[C@H]3OC(C)=O
inhibition at 10 µM [2]: > 30%

IC50 [3]: 151 µM
Compound: CC(=O)OC[C@@]12[C@@H](OC(C)=O)CC[C@@H](C)[C@]13OC(C)(C)[C@H](C(=O)[C@H]2OC(=O)c1ccccc1)[C@H]3OC(C)=O
fold change (FC) [1]: 1.9
fold change (FC) (CCRF-CEM VCR/R): 50.6
inhibition at 10 µM [2]: > 30%

Compound: CC(=O)OC[C@@]12[C@@H](OC(C)=O)CC[C@@H](C)[C@]13OC(C)(C)[C@H](C[C@@H]2OC(=O)c1ccccc1)[C@H]3OC(C)=O
inhibition at 10 µM [2]: > 30%

Compound: CC(=O)OC[C@@]12[C@@H](OC(C)=O)CC[C@@H](C)[C@]13OC(C)(C)[C@H]([C@@H](OC(=O)c1ccccc1)[C@H]2OC(=O)c1ccccc1)[C@H]3OC(C)=O
fold change (FC) [1]: 2.1
fold change (FC) (CCRF-CEM VCR/R): 131
inhibition at 10 µM [2]: 21.2%

inhibition [4]: 40.2%
Compound: NC1(C(=O)O)CC2CCC1C2 (stereo not given)

Compound: CC(=O)OC[C@@]12[C@@H](OC(C)=O)CC[C@@H](C)[C@]13OC(C)(C)[C@H]([C@@H](OC(C)=O)[C@H]2OC(=O)c1ccccc1)[C@H]3OC(C)=O
inhibition at 10 µM [2]: > 30%

inhibition [5]: 82.7%
Compound: COc1ccc(CCN(C)CCCC(C#N)(c2ccc(OC)c(OC)c2)C(C)C)cc1OC (stereo not given) [VERAPAMIL]
fold change (FC) [1]: 2.8
fold change (FC) (CCRF-CEM VCR/R): 64.5

Compound: CC(=O)OC[C@@]12[C@@H](OC(C)=O)CC[C@@H](C)[C@]13OC(C)(C)[C@H]([C@@H](OC(=O)C(C)(C)C)[C@H]2OC(=O)c1ccccc1)[C@H]3OC(C)=O
fold change (FC) [1]: 1.5
fold change (FC) (CCRF-CEM VCR/R): 124
inhibition at 10 µM [2]: 25.6%

Compound: CC(=O)O[C@H]1CC[C@@H](C)[C@]23OC(C)(C)[C@H]([C@@H](O)[C@@H](OC(=O)c4ccccc4)[C@]12C)[C@H]3OC(C)=O
inhibition at 10 µM [2]: > 30%

Compound: CC(=O)OC[C@@]12[C@@H](OC(C)=O)CC[C@@H](C)[C@]13OC(C)(C)[C@H]([C@@H](OC(C)=O)[C@H]2OC(=O)c1ccccc1)[C@H]3O
inhibition at 10 µM [2]: > 30%

Compound: COCC(=O)O[C@@H]1[C@@H]2[C@@H](OC(C)=O)[C@]3(OC2(C)C)[C@H](C)CC[C@H](OC(C)=O)[C@@]3(COC(C)=O)[C@@H]1OC(=O)c1ccccc1
inhibition at 10 µM [2]: > 30%

Compound: CC(=O)OC[C@@]12[C@@H](OC(C)=O)CC[C@@H](C)[C@]13OC(C)(C)[C@H]([C@@H](OC(=O)c1ccc(Br)cc1)[C@H]2OC(=O)c1ccccc1)[C@H]3OC(C)=O
inhibition at 10 µM [2]: > 30%

Compound: CC(=O)OC[C@@]12[C@@H](OC(C)=O)CC[C@@H](C)[C@]13OC(C)(C)[C@H]([C@@H](O)[C@@H]2OC(=O)c1ccccc1)[C@H]3OC(C)=O
inhibition at 10 µM [2]: > 30%
